Experimental data taken from patent US4435425A, “Fluorinated diaminobutane derivatives” (Merrell Toraude et Compagnie, priority 1982, dated 1984).

Experiments:
[1] = Toxicity (weight loss and deaths) in mice after daily i.p. injection for four consecutive days, observed up to 12 days (Example 10); format: in vivo, mice (male albino CDI)
Experimental: (§1) A group of 10 male albino CDI mice from Charles Riner, France, is given an i.p. injection of the test compound in aqueous solution daily for four consecutive days. Half of the animals are killed by decapitation 24 hours after the last dose of the test compound. The other half of the animals are observed for up to 12 days for toxicity (as indicated by weight loss and deaths). Control animals receive an injection of the vehicle only.
(§2) When tested as described above, 1-fluoro-2,4-diaminobutane (MFDB) and 1,1-difluoro-2,4-diaminobutane (DFDB) gave the results set forth in Table I below: […]

GABA-T = GABA-T inhibition in mouse brain after daily i.p. injection for four consecutive days (Example 10); format: in vivo, mice (male albino CDI); details: 24 hours after last dose
Experimental: as §1
The brains are removed from the dead mice and are divided into two portions by sagittal section. One half is used for the measurement of GABA-T activity while the other half is used for measuring GABA content. The GABA-T activity is measured using known methods as described by M. Jung et al., J. Neurochem., 28, 717 (1977) and 29, 797 (1977). GABA content is measured by perchloric acid or trichloroacetic acid extracts using an amino acid analyzer equiped with a fluorescene detector.
as §2

[2] = 5 mg/kg daily i.p. for 4 days, observed up to 12 days

NCCC(N)C(F)F (stereo not drawn) [DFDB, 1,1-Difluoro-2,4-diaminobutane]
Weight Loss ([1]; 2 mg/kg daily i.p. for 4 days): 0% | Morality (After treatment) ([1]; 2 mg/kg daily i.p. for 4 days, observed up to 12 days): 0/5 | Weight Loss ([1]; 5 mg/kg daily i.p. for 4 days): 0% | Morality (After treatment) [1, 2]: 0/5 | Weight Loss ([1]; 10 mg/kg daily i.p. for 4 days): -25% | Morality (After treatment) ([1]; 10 mg/kg daily i.p. for 4 days, by day 8): 2/5 | Weight Loss ([1]; 20 mg/kg daily i.p. for 4 days): -30% | Morality (After treatment) ([1]; 20 mg/kg daily i.p. for 4 days, by day 6): 5/5 | GABA-T Inhibition (GABA-T; 2 mg/kg daily i.p. for 4 days): 69.5% | GABA-T Inhibition (GABA-T; 5 mg/kg daily i.p. for 4 days): 71.4% | GABA-T Inhibition (GABA-T; 10 mg/kg daily i.p. for 4 days): 81% | GABA-T Inhibition (GABA-T; 20 mg/kg daily i.p. for 4 days): 96.7%

NCCC(N)CF (stereo not drawn) [MFDB, 1-Fluoro-2,4-diaminobutane]
Weight Loss ([1]; 5 mg/kg daily i.p. for 4 days): 0% | Morality (After treatment) [1, 2]: 0/5 | Weight Loss ([1]; 10 mg/kg daily i.p. for 4 days): 0% | Morality (After treatment) ([1]; 10 mg/kg daily i.p. for 4 days, observed up to 12 days): 0/5 | Weight Loss ([1]; 25 mg/kg daily i.p. for 4 days): -20% | Morality (After treatment) ([1]; 25 mg/kg daily i.p. for 4 days, on day 12): 2/5 | Weight Loss ([1]; 50 mg/kg daily i.p. for 4 days): -35% | Morality (After treatment) ([1]; 50 mg/kg daily i.p. for 4 days, on day 8): 3/5 | GABA-T Inhibition (GABA-T; 5 mg/kg daily i.p. for 4 days): 39.7% | GABA-T Inhibition (GABA-T; 10 mg/kg daily i.p. for 4 days): 49.8% | GABA-T Inhibition (GABA-T; 25 mg/kg daily i.p. for 4 days): 74% | GABA-T Inhibition (GABA-T; 50 mg/kg daily i.p. for 4 days): 79%
